Patent US9440983B2, “Pyrrolo[3,2-d]pyrimidine-2,4(3H,5H)-dione derivatives” (Hydra Biosciences, Inc., priority 2014, dated 2016)

What was measured:
TRPC5 channel [1] = molecular target: T1, TRPC5 channel (Homo sapiens, UniProt Q9UL62); assay: High throughput screening assay: Fluo4 cell-based fluorescence detection of intracellular Ca2+ rise; conditions: HEK293/TREx cells inducibly expressing TRPC5, high-Ca2+ Ringer (14 mM Ca2+), 7 concentrations in triplicate
T1 construct: expressed in transfected cells; host or cells: HEK293/TREx (Invitrogen), stably transfected, tetracycline-induced
T1 sequence (Q9UL62 1-973): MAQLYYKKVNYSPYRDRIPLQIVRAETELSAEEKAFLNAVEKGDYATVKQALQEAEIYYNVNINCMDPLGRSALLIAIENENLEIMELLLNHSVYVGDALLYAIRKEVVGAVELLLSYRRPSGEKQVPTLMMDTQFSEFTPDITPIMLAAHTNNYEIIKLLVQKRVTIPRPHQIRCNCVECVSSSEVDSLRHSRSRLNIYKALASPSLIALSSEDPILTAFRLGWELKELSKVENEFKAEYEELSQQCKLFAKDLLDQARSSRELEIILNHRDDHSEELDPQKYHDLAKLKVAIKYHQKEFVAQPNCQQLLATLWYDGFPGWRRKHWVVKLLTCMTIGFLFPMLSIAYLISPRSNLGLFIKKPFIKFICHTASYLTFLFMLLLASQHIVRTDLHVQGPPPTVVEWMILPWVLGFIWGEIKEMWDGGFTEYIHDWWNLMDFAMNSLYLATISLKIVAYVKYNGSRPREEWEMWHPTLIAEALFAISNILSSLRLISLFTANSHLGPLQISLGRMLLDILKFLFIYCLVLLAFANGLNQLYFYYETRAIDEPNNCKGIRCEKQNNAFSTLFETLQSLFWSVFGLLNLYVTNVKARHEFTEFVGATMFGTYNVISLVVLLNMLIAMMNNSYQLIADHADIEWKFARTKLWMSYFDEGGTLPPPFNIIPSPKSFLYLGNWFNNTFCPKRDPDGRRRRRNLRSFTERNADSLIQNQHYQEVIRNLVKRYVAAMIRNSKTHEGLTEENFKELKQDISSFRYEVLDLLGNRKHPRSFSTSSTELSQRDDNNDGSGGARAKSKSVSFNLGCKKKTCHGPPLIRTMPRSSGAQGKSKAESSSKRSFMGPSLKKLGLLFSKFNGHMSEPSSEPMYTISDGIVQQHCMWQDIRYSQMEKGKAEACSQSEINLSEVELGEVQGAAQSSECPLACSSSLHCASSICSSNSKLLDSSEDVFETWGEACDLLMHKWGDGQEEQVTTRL
Excerpt: The assay depended on detection of the rise in intracellular Ca2+ concentration ([Ca2+]i) following channel activation in cells inducibly expressing the TRPC5 channel. Ca2+ rise was quantified with the use of fluorescent Ca2+ indicators that were loaded into cells and thereafter indicated the [Ca2+]i Ca2+ influx followed activation of the TRPC5 channel. Compounds inhibiting the [Ca2+]i rise were considered hits for further investigation.
The commercially available HEK293/TREx line (Invitrogen) was stably transfected with a TRPC5 construct and screened by conventional calcium imaging to find clones with TRPC5 expression following stimulation with 1 μg/ml tetracycline. These cells were maintained in the growth medium recommended by the manufacturer supplemented with 100 μg/ml hygromycin to promote retention of the TRPC5 construct. After growing to near confluency, cells were plated at a density of ˜35,000 cells/well in 384 well CellBind plates (Corning) in the presence of 1 μg/ml tetracycline, and allowed to grow for 20-30 hrs. A nearly confluent monolayer resulted. Cells were then loaded with Ca2+ dye: Fura-2/AM or Fluo4/AM was added to the wells to a final concentration of 4 μM or 0.5 μM, respectively, and incubated for 80 min or 60 min, respectively, at room temperature. Supernatant was then removed from the cells by inverting plates with a sharp flick, and 25 μl Hank's Balanced Salt Solution (HBSS; 0.185 g/l D-glucose, 0.9767 g/l MgS04 (anhydrous), 0.4 g/l KCl, 0.06 g/l KH2PO4 (anhydrous), 0.35 g/l NaHCO3, 8.0 g/l NaCl, and 0.04788 g/l Na2HPO4 (anhydrous); pH 7.4) was then added to each well. Following ˜0.5 hour for recovery from loading, cells were assayed using the Hamamatsu FDSS 6000 system, which permitted illumination alternately at 340 nm and 380 nm for Fura-2 experiments, or at 485 nm for Fluo4 experiments. Frames were acquired at a rate of 0.2 Hz. During the assay, the plates were continuously vortexed, with pipette mixing of wells following addition of each reagent. For the screening assay, 26 μl of a diluted compound stock (at 50 μM) was added to each well for 2 minutes following the collection of a short (4 frame) baseline. 13 μl 62 mM high-Ca2+ Ringer solution (4.17 ml of normal ringer (with 2 mM Ca2+) plus 5.83 ml of isotonic calcium ringer (105 mM Ca2+; in this ringer all sodium has been replaced with calcium)) was then added to each well, achieving a final concentration of 14 mM Ca2+ and 10 μM test compound. Data was collected for ˜3 minutes following addition of high Ca2+Ringer, where the fluorescent intensity (for Fluo4) and the F340/F380 ratio (for Fura-2) were proportional to the [Ca2+]i Negative controls consisted of HEK293/TREx TRPC5 cells exposed to high Ca2+ solution, but no compound. Positive control conditions consisted of addition of 2-APB, a promiscuous blocker of TRPC5 and other channels, to columns 23 and 24 of the plates, to a final concentration of 200 μM. These controls defined a screening window, and “hits” were defined as those compounds inhibiting the fluorescence response by at least 40%. IC50 values were determined for compounds defined as “hits.” The Fluo4 cell-based fluorescence assay was used to determine the intracellular Ca2+ concentration in the presence of varying drug concentration. Final concentrations of compounds tested were 20 μM, 6.667 μM, 2.222 μM, 0.741 μM, 0.247 μM, 0.082 μM, and 0.027 μM. Compounds were tested in triplicate at all concentrations. Standard software was used to fit IC50 curves.
Additionally or alternatively, efficacy can be represented as % inhibition in the presence (of a given concentration of compound) versus the absence of compound or in comparison to a control compound. For example, efficacy can be represented as % inhibition of ion flux in the presence versus the absence of compound.

TRPC5 channel [2] = molecular target: T1, TRPC5 channel; assay: Whole-cell patch clamp experiments, TRPC5 current; format: cell-based; conditions: whole-cell patch clamp in TRPC5-expressing HEK293 TREx cells; current activated by LaCl3; IC50 estimated
Excerpt: Patch clamp experiments permit the detection of currents through the TRPC5 channel in the cell line described above. In normal whole-cell patch clamp recordings, a glass electrode is brought into contact with a single cell and a high-resistance (gigaohm) seal is established with the cell membrane. The membrane is then ruptured to achieve the whole-cell configuration, permitting control of the voltage of the cell membrane and measurement of currents flowing across the membrane using the amplifier attached to the electrode and resulting in the replacement of cytoplasm with the pipette solution. A perfusion system permits control of the extracellular solution, including the addition of blockers and activators of the current. The current can be activated by including 1.4 μM free Ca^2+ in the pipette (intracellular) solution, and 80 μM LaCl3 in the extracellular solution. TRPC5 cells were induced 20-48 hours, removed from growth plates, and replated at low density (to attain good single-cell physical separation) on glass coverslips for measurement. In some cases, cells were grown in low density overnight on glass coverslips. […] Currents elicited were quantified at −80 mV and +80 mV. The internal solution consisted of 140 mM cesium aspartate, 10 mM HEDTA, 2 mM CaCl2, 2.27 mM MgCl2 and 10 mM HEPES, pH 7.2, with 1,400 nM calculated free Ca^2+. […]

Row | Compound | IC50 (TRPC5 channel [1]) | IC50 (TRPC5 channel [2])
1 | Cc1c(-c2cccc(OC(F)(F)F)c2)n(Cc2ccc(Cl)cc2)c2c(=O)n(CCCO)c(=O)n(C)c12 [Compound 29, 5-(4-chlorobenzyl)-3-(3-hydroxypropyl)-1,7-dimethyl-6-(3-(trifluoromethoxy)phenyl)-1H-pyrrolo[3,2-d]pyrimidine-2,4(3H,5H)-dione] | 421 nM | –
2 | Cn1c(=O)n(CCCO)c(=O)c2c1cc(-c1cccc(Cl)c1)n2Cc1ccc(Cl)cc1 [Compound 30, 5-(4-chlorobenzyl)-6-(3-chlorophenyl)-3-(3-hydroxypropyl)-1-methyl-1H-pyrrolo[3,2-d]pyrimidine-2,4(3H,5H)-dione] | 503 nM | 1.14 nM
3 | Cn1c(-c2cccc(OC(F)(F)F)c2)cc2c1c(=O)n(CCCO)c(=O)n2C [Compound 32, 3-(3-hydroxypropyl)-1,5-dimethyl-6-(3-(trifluoromethoxy)phenyl)-1H-pyrrolo[3,2-d]pyrimidine-2,4(3H,5H)-dione] | 2940 nM | –
4 | Cc1c(-c2cccc(OC(F)(F)F)c2)n(C)c2c(=O)n(CCCO)c(=O)n(C)c12 [Compound 33, 3-(3-hydroxypropyl)-1,5,7-trimethyl-6-(3-(trifluoromethoxy)phenyl)-1H-pyrrolo[3,2-d]pyrimidine-2,4(3H,5H)-dione] | 832 nM | –
5 | Cc1cn(Cc2ccc(Cl)cc2)c2c(=O)n(CCCO)c(=O)n(C)c12 [Compound 34, 5-(4-chlorobenzyl)-3-(3-hydroxypropyl)-1,7-dimethyl-1H-pyrrolo[3,2-d]pyrimidine-2,4(3H,5H)-dione] | 3080 nM | –
6 | Cn1c(=O)n(CCCO)c(=O)c2c1cc(-c1cccc(OC(F)(F)F)c1)n2Cc1ccc(Cl)cc1 [Compound 35, 5-(4-chlorobenzyl)-3-(3-hydroxypropyl)-1-methyl-6-(3-(trifluoromethoxy)phenyl)-1H-pyrrolo[3,2-d]pyrimidine-2,4(3H,5H)-dione] | 780 nM | –
7 | Cc1c(-c2cccc(OC(F)(F)F)c2)[nH]c2c(=O)n(CCCO)c(=O)n(C)c12 [Compound 36, 3-(3-hydroxypropyl)-1,7-dimethyl-6-(3-(trifluoromethoxy)phenyl)-1H-pyrrolo[3,2-d]pyrimidine-2,4(3H,5H)-dione] | 7540 nM | –
8 | Cn1c(=O)n(CCCO)c(=O)c2c1c(-c1cccc(Cl)c1)cn2Cc1ccc(Cl)cc1 [Compound 37, 5-(4-chlorobenzyl)-7-(3-chlorophenyl)-3-(3-hydroxypropyl)-1-methyl-1H-pyrrolo[3,2-d]pyrimidine-2,4(3H,5H)-dione] | 408 nM | < 1 nM
